Tests used:
[1] = parameters: method as in PMID 18584053; conditions: cited from earlier work
[2] = BSA-conjugated monosaccharides and cell-based assays; relative to L-fucose; cited from earlier work
Description: Previous studies reported the potential of lectins as drug carriers to specific sites of action based on their ability to selectively bind to specific sugar moieties of targeted cells. In addition, lectins could promote drug targeting into or across the cell barriers through vesicular transport. […] As also shown in Fig. 4, it is quite evident that the internalized OL is stable at all concentration tested further supporting the notion that this peptide is likely internalized into the cellular endosome but not the lysosomes.

hCMEC/D3 cells = assay: Cellular uptake/internalization of FAM-labelled peptide (lysate fluorescence normalized to protein; fluorescence imaging); assay type: in vitro ADME, human; conditions: 3 h
Method: All experiments were performed on human brain microvascular endothelial cell line (hCMEC/D3; Millipore Sigma, Massachusetts, US, cat# SCC066), an established and well characterized model of human BBB in vitro [11, 15, 16]. Cells (2.5 × 10^3/cm^2; passages 29–32) were cultured on sterile flasks, 96-well plates (for cell viability) and chamber slides (for immunofluorescence imaging) previously coated with Matrigel in HEPES buffered basal endothelial medium (EBM2) supplemented with various growth factors and 5% FBS using Lonza EGM2 MV BulletKit™ [15]. Following 80–90% confluence, cells were subjected to experimental conditions as listed below with serum concentration reduced to 1% FBS. Culture medium’s composition was adjusted (EBM2 medium buffered with HEPES and 1% BSA with no growth factors) to determine the effects of pH and serum (%; protein binding) on the cellular uptake of FAM-OL peptide. Basic pH was maintained with addition of 1 N sodium hydroxide to the medium, while acidic pH was established by addition of phosphoric acid. Cells were lysed with RIPA buffer at the end of treatment with OL peptide and the florescence intensity was measured using BioTek Synergy2 Multimode microplate reader using cellular lysates from cells treated with 0.1% DMSO as controls at 490/520 nm. […]

mice = test system: mice; parameters: method as in PMID 18584053; conditions: cited from earlier work

## odorranalectin [OL]
[1]
  Immunogenicity: low immunogenicity
[2]
  Binding to N-acetyl-d-galactosamine: to a lesser degree
  Binding to galactose: to a lesser degree
hCMEC/D3 cells; hCMEC/D3, 10-100 µg/mL, 37 °C, media 1% FBS, 0.1% DMSO, fluorescence imaging / lysate fluorescence 490/520 nm normalized per µg protein (BCA), N = 4-5
  Concentration dependence of cellular uptake: increased linearly
hCMEC/D3 cells; hCMEC/D3, 37 °C, 1% FBS, total cell lysate fluorescence normalized per µg protein, side by side, P < 0.01
  Cellular uptake compared to scramble peptide at identical concentrations: two to threefolds higher
mice
  Toxicity profile in mice: low toxicity profile

From paper PMC6505199, “In vitro characterization of odorranalectin for peptide-based drug delivery across the blood–brain barrier” (BMC Neuroscience, 2019)
